Measurements reported in patent publication US10409869B2, “(R)- and (S)-1-(3-(3-N,N-dimethylaminocarbonyl)phenoxyl-4-nitrophenyl)-1-ethyl-N,N'-bis (ethylene)phosphoramidate, compositions and methods for their use and preparation” (OBI Pharma, Inc., priority 2015, dated 2019).

What was measured:
[1] = Plasma concentration and TK after 30-min IV infusion at 2 mg/kg; assay type: in vivo, Cynomolgus monkeys; details: for AUC(0-inf) / AUC(0-t): Cynomolgus, cynomolgus monkey, plasma, iv, 2 mg/kg
Method: (§1) TH 3423 and TH 3424 were tested in […] naïve monkeys (1 male and one female for each compound at 2 mg/kg) with 30-min intravenous infusion, TK sampling: on Day 1 and Day 15: 0.25, 0.5, 0.75, 1 and 2 hr post infusion initiation. Serum chemistry and hematology: pre-dose (Day 1), day 5, day 8 (pre-dose), day 15 (pre-dose), day 22 and day 28. Clinical observation: Daily during the study, total 35 days. Food consumption: Daily during the study, total 35 days. Bodyweight measurement: Twice weekly for five weeks.

[2] = Hematology in monkeys, 2 mg/kg 30-min IV infusion; assay type: in vivo, Cynomolgus monkeys
Method: as §1

Compound: C[C@@H](OP(=O)(N1CC1)N1CC1)c1ccc([N+](=O)[O-])c(Oc2cccc(C(=O)N(C)C)c2)c1 (single isomer, unassigned) [TH3423]
- Plasma concentration ([1]; 2 hr, female): BQL
- AUC(0-inf) ([1]; both sexes, Mean): 770 ng·h/mL
- AUC(0-t) ([1]; both sexes, Mean): 766 ng·h/mL
- AUC(0-inf) ([1]; female): 766 ng·h/mL
- AUC(0-t) ([1]; female): 758 ng·h/mL
- AUC(0-inf) ([1]; male): 774 ng·h/mL
- AUC(0-t) ([1]; male): 773 ng·h/mL
- % BASO ([2]; female, Day 1 (pre-dose)): 0.0%
- % EOS ([2]; female, Day 1 (pre-dose)): 2.3%
- % MONO ([2]; female, Day 1 (pre-dose)): 4.8%
- % NEUT ([2]; female, Day 1 (pre-dose)): 47.9%
- HCT ([2]; female, Day 1 (pre-dose)): 35%
- HGB ([2]; female, Day 1 (pre-dose)): 112 g/L
- LYM ([2]; female, Day 1 (pre-dose)): 45%
- MCH ([2]; female, Day 1 (pre-dose)): 24 pg
- MCHC ([2]; female, Day 1 (pre-dose)): 320 g/L
- MCV ([2]; female, Day 1 (pre-dose)): 74.9 fL
- MPV ([2]; female, Day 1 (pre-dose)): 10.6 fL
- PCT ([2]; female, Day 1 (pre-dose)): 0.338%
- PDW ([2]; female, Day 1 (pre-dose)): 14.8
- PLT ([2]; female, Day 1 (pre-dose)): 3.18e+11 L⁻¹
- RBC ([2]; female, Day 1 (pre-dose)): 4.67e+12 L⁻¹
- RDW-CV ([2]; female, Day 1 (pre-dose)): 11.8%
- RDW-SD ([2]; female, Day 1 (pre-dose)): 37.2 fL
- WBC ([2]; female, Day 1 (pre-dose)): 6.7e+09 L⁻¹
- abs_basos ([2]; female, Day 1 (pre-dose)): 0 L⁻¹
- abs_eos ([2]; female, Day 1 (pre-dose)): 1.5e+08 L⁻¹
- abs_lymphs ([2]; female, Day 1 (pre-dose)): 3.02e+09 L⁻¹
- abs_monos ([2]; female, Day 1 (pre-dose)): 3.2e+08 L⁻¹
- abs_neuts ([2]; female, Day 1 (pre-dose)): 3.21e+09 L⁻¹
- % BASO ([2]; female, Day 8 (pre-dose)): 0.20%
- % EOS ([2]; female, Day 8 (pre-dose)): 2.30%
- % MONO ([2]; female, Day 8 (pre-dose)): 0.00%
- % NEUT ([2]; female, Day 8 (pre-dose)): 61.90%
- HCT ([2]; female, Day 8 (pre-dose)): 39.80%
- HGB ([2]; female, Day 8 (pre-dose)): 128.00 g/L
- LYM ([2]; female, Day 8 (pre-dose)): 35.60%
- MCH ([2]; female, Day 8 (pre-dose)): 24.60 pg
- MCHC ([2]; female, Day 8 (pre-dose)): 322.00 g/L
- MCV ([2]; female, Day 8 (pre-dose)): 76.30 fL
- MPV ([2]; female, Day 8 (pre-dose)): 9.60 fL
- PCT ([2]; female, Day 8 (pre-dose)): 0.67%
- PDW ([2]; female, Day 8 (pre-dose)): 15.40
- PLT ([2]; female, Day 8 (pre-dose)): 6.99e+11 L⁻¹
- RBC ([2]; female, Day 8 (pre-dose)): 5.21e+12 L⁻¹
- RDW-CV ([2]; female, Day 8 (pre-dose)): 12.30%
- RDW-SD ([2]; female, Day 8 (pre-dose)): 39.50 fL
- WBC ([2]; female, Day 8 (pre-dose)): 1.035e+10 L⁻¹
- abs_basos ([2]; female, Day 8 (pre-dose)): 2e+07 L⁻¹
- abs_eos ([2]; female, Day 8 (pre-dose)): 2.5e+08 L⁻¹
- abs_lymphs ([2]; female, Day 8 (pre-dose)): 3.68e+09 L⁻¹
- abs_monos ([2]; female, Day 8 (pre-dose)): 0 L⁻¹
- abs_neuts ([2]; female, Day 8 (pre-dose)): 6.4e+09 L⁻¹
- % BASO ([2]; female, Day 15 (pre-dose)): 0.10%
- % EOS ([2]; female, Day 15 (pre-dose)): 2.70%
- % MONO ([2]; female, Day 15 (pre-dose)): 6.30%
- % NEUT ([2]; female, Day 15 (pre-dose)): 63.0%
- HCT ([2]; female, Day 15 (pre-dose)): 33.9%
- HGB ([2]; female, Day 15 (pre-dose)): 115 g/L
- LYM ([2]; female, Day 15 (pre-dose)): 27.90%
- MCH ([2]; female, Day 15 (pre-dose)): 24.0 pg
- MCHC ([2]; female, Day 15 (pre-dose)): 339 g/L
- MCV ([2]; female, Day 15 (pre-dose)): 70.6 fL
- MPV ([2]; female, Day 15 (pre-dose)): 8.70 fL
- PCT ([2]; female, Day 15 (pre-dose)): 0.46%
- PDW ([2]; female, Day 15 (pre-dose)): 15.10
- PLT ([2]; female, Day 15 (pre-dose)): 5.33e+11 L⁻¹
- RBC ([2]; female, Day 15 (pre-dose)): 4.8e+12 L⁻¹
- RDW-CV ([2]; female, Day 15 (pre-dose)): 10.9%
- RDW-SD ([2]; female, Day 15 (pre-dose)): 32.3 fL
- WBC ([2]; female, Day 15 (pre-dose)): 9.56e+09 L⁻¹
- abs_basos ([2]; female, Day 15 (pre-dose)): 1e+07 L⁻¹
- abs_eos ([2]; female, Day 15 (pre-dose)): 2.6e+08 L⁻¹
- abs_lymphs ([2]; female, Day 15 (pre-dose)): 2.67e+09 L⁻¹
- abs_monos ([2]; female, Day 15 (pre-dose)): 6e+08 L⁻¹
- abs_neuts ([2]; female, Day 15 (pre-dose)): 6.02e+09 L⁻¹
- % BASO ([2]; male, Day 1 (pre-dose)): 0.0%
- % EOS ([2]; male, Day 1 (pre-dose)): 2.4%
- % MONO ([2]; male, Day 1 (pre-dose)): 5.5%
- % NEUT ([2]; male, Day 1 (pre-dose)): 55.4%
- HCT ([2]; male, Day 1 (pre-dose)): 40.8%
- HGB ([2]; male, Day 1 (pre-dose)): 132 g/L
- LYM ([2]; male, Day 1 (pre-dose)): 36.7%
- MCH ([2]; male, Day 1 (pre-dose)): 25.4 pg
- MCHC ([2]; male, Day 1 (pre-dose)): 324 g/L
- MCV ([2]; male, Day 1 (pre-dose)): 78.3 fL
- MPV ([2]; male, Day 1 (pre-dose)): 10.2 fL
- PCT ([2]; male, Day 1 (pre-dose)): 0.365%
- PDW ([2]; male, Day 1 (pre-dose)): 15.1
- PLT ([2]; male, Day 1 (pre-dose)): 3.58e+11 L⁻¹
- RBC ([2]; male, Day 1 (pre-dose)): 5.2e+12 L⁻¹
- RDW-CV ([2]; male, Day 1 (pre-dose)): 11.6%
- RDW-SD ([2]; male, Day 1 (pre-dose)): 38.2 fL
- WBC ([2]; male, Day 1 (pre-dose)): 5.33e+09 L⁻¹
- abs_basos ([2]; male, Day 1 (pre-dose)): 0 L⁻¹
- abs_eos ([2]; male, Day 1 (pre-dose)): 1.3e+08 L⁻¹
- abs_lymphs ([2]; male, Day 1 (pre-dose)): 1.95e+09 L⁻¹
- abs_monos ([2]; male, Day 1 (pre-dose)): 2.9e+08 L⁻¹
- abs_neuts ([2]; male, Day 1 (pre-dose)): 2.96e+09 L⁻¹
- % BASO ([2]; male, Day 8 (pre-dose)): 0.7%
- % EOS ([2]; male, Day 8 (pre-dose)): 3.0%
- % MONO ([2]; male, Day 8 (pre-dose)): 0.0%
- % NEUT ([2]; male, Day 8 (pre-dose)): 80.9%
- HCT ([2]; male, Day 8 (pre-dose)): 44.70%
- HGB ([2]; male, Day 8 (pre-dose)): 146.00 g/L
- LYM ([2]; male, Day 8 (pre-dose)): 15.4%
- MCH ([2]; male, Day 8 (pre-dose)): 24.90 pg
- MCHC ([2]; male, Day 8 (pre-dose)): 327.00 g/L
- MCV ([2]; male, Day 8 (pre-dose)): 76.20 fL
- MPV ([2]; male, Day 8 (pre-dose)): 10.60 fL
- PCT ([2]; male, Day 8 (pre-dose)): 0.52%
- PDW ([2]; male, Day 8 (pre-dose)): 15.70
- PLT ([2]; male, Day 8 (pre-dose)): 4.9e+11 L⁻¹
- RBC ([2]; male, Day 8 (pre-dose)): 5.86e+12 L⁻¹
- RDW-CV ([2]; male, Day 8 (pre-dose)): 11.90%
- RDW-SD ([2]; male, Day 8 (pre-dose)): 38.00 fL
- WBC ([2]; male, Day 8 (pre-dose)): 1.166e+10 L⁻¹
- abs_basos ([2]; male, Day 8 (pre-dose)): 8e+07 L⁻¹
- abs_eos ([2]; male, Day 8 (pre-dose)): 3.5e+08 L⁻¹
- abs_lymphs ([2]; male, Day 8 (pre-dose)): 1.79e+09 L⁻¹
- abs_monos ([2]; male, Day 8 (pre-dose)): 0 L⁻¹
- abs_neuts ([2]; male, Day 8 (pre-dose)): 9.44e+09 L⁻¹
